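Each compound was tested at five concentrations against cells in 96-well plates for 48 hours. GI50: concentration for 50% inhibition of growth.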 Calls of active or inactive are those of the source. Cut-off read from the data, not from the text of the source: active = GI50 up to about 1.1 µM and inactive = higher.
Columns and labels:
Experiment in all cases: inhibition of tumour cell growth, NCI panel, 48 h
M14 = system: M14
A549 = system: A549
SF-268 = system: SF-268
RPMI-8226 = system: RPMI-8226
HOP-62 = system: HOP-62
LOX IMVI = system: LOX IMVI
K562 = system: K562
SF-539 = system: SF-539
HCC 2998 = system: HCC 2998
LXFL 529 = system: LXFL 529
SN12C = system: SN12C
DMS-114 = system: DMS-114
IGROV-1 = system: IGROV-1
UO-31 = system: UO-31
HCT-15 = system: HCT-15
M19-MEL = system: M19-MEL
OVCAR-8 = system: OVCAR-8
EKVX = system: EKVX
OVCAR-4 = system: OVCAR-4
SR = system: SR

Row | SMILES | GI50 (M14) | GI50 (A549) | GI50 (SF-268) | GI50 (RPMI-8226) | GI50 (HOP-62) | GI50 (LOX IMVI) | GI50 (K562) | GI50 (SF-539) | GI50 (HCC 2998) | GI50 (LXFL 529) | GI50 (SN12C) | GI50 (DMS-114) | GI50 (IGROV-1) | GI50 (UO-31) | GI50 (HCT-15) [µM] | GI50 (M19-MEL) | GI50 (OVCAR-8) | GI50 (EKVX) | GI50 (OVCAR-4) | GI50 (SR)
1 | CCN(CC)CCC(=O)c1ccccc1 | 16.8 µM (inactive) | > 100 µM (inactive) | 17.8 µM (inactive) | 2.85 µM (inactive) | > 100 µM (inactive) | 19.4 µM (inactive) | 7.45 µM (inactive) | 24.8 µM (inactive) | 56 µM (inactive) | 17.8 µM (inactive) | 19.3 µM (inactive) | 20.3 µM (inactive) | > 100 µM (inactive) | 31.3 µM (inactive) | 20.1 | 25.6 µM (inactive) | 24.2 µM (inactive) | 60 µM (inactive) | 20.5 µM (inactive) | 14 µM (inactive)
2 | OC12c3ccccc3C1CCCCCCCCCC21OCCCO1 (stereo not given) | > 100 µM (inactive) | > 100 µM (inactive) | > 100 µM (inactive) | > 100 µM (inactive) | > 100 µM (inactive) | > 100 µM (inactive) | 5.09 µM (inactive) | > 100 µM (inactive) | > 100 µM (inactive) | > 100 µM (inactive) | > 100 µM (inactive) | > 100 µM (inactive) | > 100 µM (inactive) | > 100 µM (inactive) | 5.15 | > 100 µM (inactive) | > 100 µM (inactive) | > 100 µM (inactive) | > 100 µM (inactive) | 4.73 µM (inactive)

Reference: ChEMBL document CHEMBL1201862, “PubChem BioAssay data set” (2004)
